Results from patent US8609087B2, “Compounds and methods for identifying compounds which inhibit a new class of aspartyl proteases” (priority 1999, dated 2013).
Where “and” joins values, the source holds several entries; their conditions need not be identical. Equal values may be shown once. Entries after “also recorded” stand apart in the source; their conditions may differ. Square brackets hold non-standard residues; d marks the D form. Peptide text beside a SMILES is read from it. * marks the point of attachment. Sta = CC(C)C[C@H](N)[C@@H](O)CC(=O)O; Isovaleryl = CC(C)CC(=O)*; Nle = CCCC[C@H](N)C(=O)O

Molecular target: TcpJ type 4 prepilin peptidase (TFPP) (Vibrio cholerae serotype O1, UniProt A5F385, P151Q/Q149P/S169T)
Format: biochemical

Row | Molecule | % Cleavage | Effect on TcpJ peptidase activity (in words)
1 | O=c1oc(Cl)c(Cl)c2ccccc12 [3,4-DCI] | 89% and 54% | 
2 | CC(C)C[C@H](NC(=O)[C@@H](O)[C@H](N)Cc1ccccc1)C(=O)O [Bestatin] | 81% | 
3 | CCCC[C@@H](C=O)NC(=O)[C@H](CC(C)C)NC(=O)[C@H](CC(C)C)NC(C)=O [Calpain inhibitor I] (Ac-Leu-Leu-[Nle]-aldehyde) | 87% | 
4 | CC(=O)N[C@@H](CC(C)C)C(=O)N[C@@H](CC(C)C)C(=O)N[C@H](C=O)CCCNC(=N)N [Leupeptin] | 85% | 
5 | CCN1C(=O)C=CC1=O [NEM] | 30% | partial effects
6 | O=S(=O)(F)Cc1ccccc1 [PMSF] | 98% and 68% | partial effects
7 | Cl.NCCc1ccc(S(=O)(=O)F)cc1 [Pefabloc SC] | 62% and 50% | partial effects
8 | CC(C)CC(=O)N[C@H](C(=O)N[C@H](C(=O)N[C@@H](CC(C)C)[C@@H](O)CC(=O)N[C@@H](C)C(=O)N[C@@H](CC(C)C)[C@@H](O)CC(=O)O)C(C)C)C(C)C [Pepstatin] (Isovaleryl-VV[Sta]A[Sta]-OH) | 95% and 92% and 74% | complete insensitivity; also recorded: completely resistant
9 | CC(C)C[C@H](NP(=O)(O)O[C@@H]1O[C@@H](C)[C@H](O)[C@@H](O)[C@H]1O)C(=O)N[C@@H](Cc1c[nH]c2ccccc12)C(=O)O [Phosphoramidon] | 89% | 
10 | Aprotinin | 100% | 
